Patent US20240206516A1, “SYSTEMS AND METHODS FOR SUGAR-REDUCTION AND/OR FIBER PRODUCTION FOR FOOD AND OTHER APPLICATIONS” (President and Fellowa of Harvard College, priority 2021, published 2024)

Experiments:
glucose oxidase = glucose oxidase (Aspergillus niger, UniProt P13006); experiment: Enzymatic activity of glucose oxidase in the presence of polyphenol and metal ions at different pH; format: biochemical
Procedure: Enzymatic activity of glucose oxidase was tested in the presence of polyphenol and metal ions from minerals at different pH. Polyphenol is known to be able to bind to enzymes and also form metal coordination with the metal ions.
The enzyme (e.g, glucose oxidase) was combined with different polyphenols (e.g., tannic acid, EGCG) and metal ions from different minerals (e.g., CaCl2, FeCl3, MgCl2, ZnCl2) in buffer solutions having two pH conditions. A buffer having a first pH condition of 3.5 was used to simulate juice buffer. A buffer having a second pH condition of 7 was used to simulate intestinal buffer. The effect of bile salt (an intrinsic compound found in the intestine) on enzymatic activity of glucose oxidase was also tested by incorporating it into the simulated pH 7 intestinal buffer. It should be noted that the enzyme in FIG. 4 is not limited to glucose oxidase, as described in this example. Any appropriate enzymes described elsewherein herein (e.g., inulosucrase, etc.) may be employed using the experimental design in FIG. 4 for sugar reduction.
The enzyme activity of glucose oxidase was measured by measuring the capability of glucose oxidase to convert glucose in different experimental conditions. […] It was hypothesized that at a pH of 7, polyphenol formed metal coordination complexes with metal ions and thus dissociated from the glucose oxidase.
A similar trend in […] was observed when a different polyphenol, EGCE, was used instead of tannic acid.

inulosucrase = molecular target: T1, inulosucrase (Lactobacillus gasseri, UniProt D3WYV9); experiment: Inhibition of inulosucrase enzymatic activity by tannic acid; format: biochemical
T1 sequence (D3WYV9 37-761): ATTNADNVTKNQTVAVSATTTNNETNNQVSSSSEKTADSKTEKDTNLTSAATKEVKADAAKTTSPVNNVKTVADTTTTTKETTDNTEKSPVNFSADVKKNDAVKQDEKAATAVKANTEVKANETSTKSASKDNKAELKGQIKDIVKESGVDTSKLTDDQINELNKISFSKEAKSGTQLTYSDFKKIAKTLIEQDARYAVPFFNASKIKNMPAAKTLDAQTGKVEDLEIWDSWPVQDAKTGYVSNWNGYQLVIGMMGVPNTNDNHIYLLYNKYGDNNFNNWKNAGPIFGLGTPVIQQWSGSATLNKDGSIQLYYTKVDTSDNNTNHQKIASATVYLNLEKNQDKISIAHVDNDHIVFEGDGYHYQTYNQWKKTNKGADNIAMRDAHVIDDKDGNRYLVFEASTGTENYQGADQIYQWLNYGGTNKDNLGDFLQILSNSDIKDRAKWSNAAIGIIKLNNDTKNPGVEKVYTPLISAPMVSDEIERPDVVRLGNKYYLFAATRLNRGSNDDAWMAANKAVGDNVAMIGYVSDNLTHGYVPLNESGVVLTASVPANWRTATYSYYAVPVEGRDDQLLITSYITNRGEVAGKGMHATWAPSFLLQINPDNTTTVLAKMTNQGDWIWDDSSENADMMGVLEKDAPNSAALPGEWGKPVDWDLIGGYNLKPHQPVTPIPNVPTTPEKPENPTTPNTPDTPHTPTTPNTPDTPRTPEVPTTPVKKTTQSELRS
Procedure: In addition to encapsulating the inulosucrase-nanocellulose complex, an inhibitor (e.g., tannic acid) could also be encapsulated together with the complex. The amount of tannic acid necessary to inhibit enzymatic activity of inulosucrase (while attached to nanocellulose) is shown in FIG. 19. […] The effect of inulosucrase in various food products were studied. Free inulosucrase (not attached to any substrate) was added to a beverage (e.g., Capri San®) and the concentration of various saccharides was measured after 10 minutes at room temperature and 37° C. (FIG. 20A). […] Additional data for other food products (e.g., chocolates) are illustrated in FIGS. 20B-20C.
The effect of tannic acid on enzymatic activity in various food products at different pH conditions was studied. Tannic acid was combined with an enzyme (e.g., inulosucrase) at 1:1 molar ratio to form tannic acid-enzyme (TA-Enz) complex. The TA-Enz complex was prepared at various pH levels (e.g., 3.5, 5.5) and tannic acid concentrations (e.g., 10 mM, 30 mM, 50 mM). The effect of TA-Enz complex in sucrose solution and apple juice was compared to that of free enzyme (enzyme not complexed with tannic acid). Residual sucrose of sucrose solution and apple juice was first monitored in the presence of TA-Enz complexes after an incubation time of 15 minutes.
Residual sucrose of sucrose solution and apple juice was also monitored in the presence of TA-Enz complexes after an incubation time of 24 hours (FIGS. 23A-23B).

[1] = pH 3.5 (simulated juice buffer), polyphenol with Mg^+2 (from MgCl2)
[2] = pH 7 (simulated intestinal buffer), polyphenol with Mg^+2
[3] = pH 7 with bile salt (0.2 wt %), polyphenol with Mg^+2

glucose oxidase, sequence (P13006 17-605, species assumed): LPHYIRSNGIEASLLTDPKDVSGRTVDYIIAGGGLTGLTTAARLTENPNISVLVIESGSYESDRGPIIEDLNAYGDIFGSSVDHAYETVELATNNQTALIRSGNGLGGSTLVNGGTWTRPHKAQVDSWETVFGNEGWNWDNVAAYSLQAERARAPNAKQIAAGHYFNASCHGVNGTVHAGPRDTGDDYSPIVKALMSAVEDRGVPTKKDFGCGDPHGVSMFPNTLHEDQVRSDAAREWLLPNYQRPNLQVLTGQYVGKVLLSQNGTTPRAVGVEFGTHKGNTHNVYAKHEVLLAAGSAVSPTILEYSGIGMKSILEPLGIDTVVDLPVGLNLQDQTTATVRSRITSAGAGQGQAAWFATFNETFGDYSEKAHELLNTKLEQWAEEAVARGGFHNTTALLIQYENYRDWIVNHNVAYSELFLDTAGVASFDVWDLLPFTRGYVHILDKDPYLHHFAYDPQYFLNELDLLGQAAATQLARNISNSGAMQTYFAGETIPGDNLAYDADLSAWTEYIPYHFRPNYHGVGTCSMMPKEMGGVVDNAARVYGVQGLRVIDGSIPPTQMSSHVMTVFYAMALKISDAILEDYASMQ

O=C(OC[C@H]1O[C@@H](OC(=O)c2cc(O)c(O)c(OC(=O)c3cc(O)c(O)c(O)c3)c2)[C@H](OC(=O)c2cc(O)c(O)c(OC(=O)c3cc(O)c(O)c(O)c3)c2)[C@@H](OC(=O)c2cc(O)c(O)c(OC(=O)c3cc(O)c(O)c(O)c3)c2)[C@@H]1OC(=O)c1cc(O)c(O)c(OC(=O)c2cc(O)c(O)c(O)c2)c1)c1cc(O)c(O)c(OC(=O)c2cc(O)c(O)c(O)c2)c1 [tannic acid]
concentration at which glucose oxidase activity was significantly inhibited (glucose oxidase): 1 µM | enzymatic activity of glucose oxidase (glucose oxidase; [1]): further inhibited | enzymatic activity of glucose oxidase (glucose oxidase; [2]): partially recovered | enzymatic activity of glucose oxidase (glucose oxidase; [3]): furthered recovered | inulosucrase activity after polyphenol inhibition (inulosucrase; in the presence of bile salts): reactivated in the presence of bile salts | pH-dependent inhibition and reactivation of enzymatic activity (inulosucrase; low pH ˜3.5 vs higher pH ˜6.8): repeated inhibition of enzymatic activity at low pH (e.g., pH˜3.5) and reactivation of enzymatic activity at higher pH (e.g., pH˜6.8) | enzymatic activity of inulosucrase (attached to nanocellulose) (inulosucrase; with increase in tannic acid concentration): reduction in enzymatic activity

O=C(O[C@@H]1Cc2c(O)cc(O)cc2O[C@@H]1c1cc(O)c(O)c(O)c1)c1cc(O)c(O)c(O)c1 [EGCE, Epigallocatechin gallate]
enzymatic activity of glucose oxidase (glucose oxidase; [1]): prohibited its enzymatic activity | enzymatic activity of glucose oxidase (glucose oxidase; [2]): partially recovered | enzymatic activity of glucose oxidase (glucose oxidase; [3]): further enzymatic activity was recovered
